From patent US12577206B2 (BRISTOL-MYERS SQUIBB COMPANY, priority 2020, dated 2026) come the findings set out here.

pEC50: −log10 of the molar value. Bounds are passed on as bounds.

In one test the target is T1, human FPR2 (Homo sapiens, UniProt P25090).
T1 sequence (P25090 1-351): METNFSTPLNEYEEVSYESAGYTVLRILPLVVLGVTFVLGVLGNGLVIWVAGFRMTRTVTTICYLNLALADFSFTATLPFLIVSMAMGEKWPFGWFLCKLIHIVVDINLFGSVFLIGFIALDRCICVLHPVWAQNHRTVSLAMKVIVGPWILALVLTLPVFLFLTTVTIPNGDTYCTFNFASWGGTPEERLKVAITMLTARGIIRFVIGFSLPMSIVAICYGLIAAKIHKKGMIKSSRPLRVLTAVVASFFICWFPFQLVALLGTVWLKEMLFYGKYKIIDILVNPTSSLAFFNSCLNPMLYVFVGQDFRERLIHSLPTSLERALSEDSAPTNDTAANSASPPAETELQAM
Description: FPR2 cyclic adenosine monophosphate (cAMP) assay. The following applies: CHO cells overexpressing human FPR2; forskolin 5 μM; inhibition of cAMP production; HTRF; read-out: hFPR2 cAMP2 EC50. The format is cell-based. The source says: (§1) N-formyl peptide receptors (FPRs) are a family of chemo attractant receptors that facilitate leukocyte response during inflammation. FPRs belong to the seven-transmembrane G protein-coupled receptor superfamily and are linked to inhibitory G-proteins (Gi). Three family members (FPR1, FPR2 and FPR3) have been identified in humans and are predominantly found in myeloid cells with varied distribution and have also been reported in multiple organs and tissues. After agonist binding, the FPRs activate a multitude of physiological pathways, such as intra cellular signaling transduction, Ca^2+ mobilization and transcription. The family interacts with a diverse set of ligands that includes proteins, polypeptides and fatty acid metabolites which activate both pro-inflammatory and pro-resolution downstream responses. FPR2 and FPR1 Cyclic Adenosine Monophosphate (cAMP) Assays were used to measure the in vitro activity of the compounds disclosed in this application.
(§2) FPR2 and FPR1 Cyclic Adenosine Monophosphate (cAMP) Assays. A mixture of forskolin (5 μM final for FPR2 or 10 μM final for FPR1) and IBMX (200 μM final) were added to 384-well Proxiplates (Perkin-Elmer) pre-dotted with test compounds in DMSO (1% final) at final concentrations in the range of 0.020 nM to 100 μM. Chinese Hamster Ovary cells (CHO) overexpressing human FPR1 or human FPR2 receptors were cultured in F-12 (Ham's) medium supplemented with 10% qualified FBS, 250 μg/mL zeocin and 300 μg/mL hygromycin (Life Technologies). Reactions were initiated by adding 2,000 human FPR2 cells per well or 4,000 human FPR1 cells per well in Dulbecco's PBS (with calcium and magnesium) (Life Technologies) supplemented with 0.1% BSA (Perkin-Elmer). The reaction mixtures were incubated for 30 min at rt. The level of intracellular cAMP was determined using the HTRF HiRange cAMP assay reagent kit (Cisbio) according to manufacturer's instruction. Solutions of cryptate conjugated anti-cAMP and d2 flurorophore-labeled cAMP were made in a supplied lysis buffer separately. Upon completion of the reaction, the cells were lysed with equal volume of the d2-cAMP solution and anti-cAMP solution. […] The potency and activity of a compound to inhibit cAMP production was then determined by fitting to a 4-parametric logistic equation from a plot of cAMP level versus compound concentrations.

The target in a further test is T2, human FPR1 (Homo sapiens, UniProt P21462).
T2 sequence (P21462 1-350): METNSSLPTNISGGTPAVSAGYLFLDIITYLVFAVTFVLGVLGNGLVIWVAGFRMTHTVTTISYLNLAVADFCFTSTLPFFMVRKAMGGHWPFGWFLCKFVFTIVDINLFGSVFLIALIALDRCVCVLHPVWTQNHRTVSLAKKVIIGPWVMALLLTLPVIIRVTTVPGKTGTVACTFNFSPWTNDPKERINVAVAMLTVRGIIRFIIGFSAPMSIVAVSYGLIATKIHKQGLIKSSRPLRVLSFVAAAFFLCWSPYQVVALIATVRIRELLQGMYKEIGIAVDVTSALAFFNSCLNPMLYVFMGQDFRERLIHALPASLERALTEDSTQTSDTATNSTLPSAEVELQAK
Put plainly: FPR1 cyclic adenosine monophosphate (cAMP) assay. In kind it is cell-based. To be noted: CHO cells overexpressing human FPR1; forskolin 10 μM; inhibition of cAMP production; HTRF; read-out: hFPR1 cAMP2 EC50.
Excerpt: as §1, §2

In general, pEC50 refers to −log10 of the EC50, conventionally taken in molar units. `CCc1ccc(N2CC(C)(O)C2)nc1-n1c(=O)c(NC(=O)c2ccc(OC(F)F)cc2)c(-c2c(F)cc(OC)cc2F)n1C` [Example 310, N-[5-(2,6-difluoro-4-methoxyphenyl)-2-[3-ethyl-6-(3-hydroxy-3-methylazetidin-1-yl)pyridin-2-yl]-1-methyl-3-oxo-2,3-dihydro-1H-pyrazol-4-yl]-4-(difluoromethoxy)benzamide]: the pEC50 on human FPR2 is 8.15; on human FPR1, under 5.00.

Consider `COc1cc(F)c(-c2c(NC(=O)c3ccc(OC(F)F)cc3)c(=O)n(-c3nc(N4CCC(C)(O)CC4)ccc3C(F)(F)F)n2C)c(F)c1` [Example 314, N-[5-(2,6-difluoro-4-methoxyphenyl)-2-[6-(4-hydroxy-4-methylpiperidin-1-yl)-3-(trifluoromethyl)pyridin-2-yl]-1-methyl-3-oxo-2,3-dihydro-1H-pyrazol-4-yl]-4-(difluoromethoxy)benzamide], for which the results for the negative logarithm of the EC50 (pEC50) at human FPR2 and on human FPR1 were 9.00 and 5.57, respectively.

On to `COc1cc(F)c(-c2c(NC(=O)c3ccc(OC(F)F)cc3)c(=O)n(-c3nc(N4CCC(C)(O)C4)ccc3C(F)(F)F)n2C)c(F)c1` (stereo not shown) [Example 284, N-[5-(2,6-difluoro-4-methoxyphenyl)-2-[6-(3-hydroxy-3-methylpyrrolidin-1-yl)-3-(trifluoromethyl)pyridin-2-yl]-1-methyl-3-oxo-2,3-dihydro-1H-pyrazol-4-yl]-4-(difluoromethoxy)benzamide], for which the pEC50 on human FPR2 is 8.70; on human FPR1, 5.74.

For the molecule `COc1cc(F)c(-c2c(NC(=O)c3ccc(OC(F)F)cc3)c(=O)n(-c3cccc(N4CCN(C)CC4)n3)n2C)c(F)c1` [Example 83, N-[5-(2,6-difluoro-4-methoxyphenyl)-1-methyl-2-[6-(4-methylpiperazin-1-yl)pyridin-2-yl]-3-oxo-2,3-dihydro-1H-pyrazol-4-yl]-4-(difluoromethoxy)benzamide], the negative-log EC50 (pEC50) was 8.70 on human FPR2 and under 5.00 on human FPR1.

As for `CNC(=O)CNc1ccc(C(F)(F)F)c(-n2c(=O)c(NC(=O)c3ccc(OC(F)F)cc3)c(-c3c(F)cc(OC)cc3F)n2C)n1` [Example 238, N-[5-(2,6-difluoro-4-methoxyphenyl)-1-methyl-2-(6-{[(methylcarbamoyl)methyl]amino}-3-(trifluoromethyl)pyridin-2-yl)-3-oxo-2,3-dihydro-1H-pyrazol-4-yl]-4-(difluoromethoxy)benzamide], the figures for the pEC50 on human FPR2 and at human FPR1 were 8.52 and under 5.00, respectively.

With `COc1cc(F)c(-c2c(NC(=O)c3ccc(OC(F)(F)F)cc3)c(=O)n(-c3cccc(OC)n3)n2C)c(F)c1` [Example 74, N-[5-(2,6-difluoro-4-methoxyphenyl)-2-(6-methoxypyridin-2-yl)-1-methyl-3-oxo-2,3-dihydro-1H-pyrazol-4-yl]-4-(trifluoromethoxy)benzamide], the negative-log EC50 (pEC50) on human FPR2 is 8.22; on human FPR1, 6.09.

As for `COc1cc(F)c(-c2c(NC(=O)c3ccc(OC(F)(F)F)cc3)c(=O)n(-c3ccccc3Cl)n2C)c(F)c1` [Example 172, N-[2-(2-chlorophenyl)-5-(2,6-difluoro-4-methoxyphenyl)-1-methyl-3-oxo-2,3-dihydro-1H-pyrazol-4-yl]-4-(trifluoromethoxy)benzamide], the pEC50 at human FPR2 is 7.89; on human FPR1, 5.48.

For the molecule `Cc1cc(OCC(C)(C)O)nc(-n2c(=O)c(NC(=O)c3ccc(OC(F)F)cc3)c(-c3c(F)cc(OC(F)F)cc3F)n2C)c1` [Example 400, 4-(difluoromethoxy)-N-(5-(4-(difluoromethoxy)-2,6-difluorophenyl)-2-(6-(2-hydroxy-2-methylpropoxy)-4-methylpyridin-2-yl)-1-methyl-3-oxo-2,3-dihydro-1H-pyrazol-4-yl)benzamide], the results for the pEC50 at human FPR2 and on human FPR1 were 7.24 and under 5.00, respectively.
